pEC50, pIC50: −log10 of the molar value.
What was measured:
[1] = tested on: ICAM-1 induction in BEAS2B cells; experiment: Poly I:C-induced ICAM-1 induction in BEAS2B cells; format: cell-based, human; settings: Homo sapiens, BEAS-2B, read-out: PolyIC/ICAM1 IC50 BEAS2B
How it was run: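 Human bronchial epithelial BEAS2B cells were pre-incubated with compound for 2 hr, then transfected with 1 μg/mL poly I:C. After 18 hr, surface ICAM-1 was measured by cell-based ELISA (OD450-655) and normalized to crystal violet cell counts (OD595). IC50 came from inhibition versus vehicle across the concentration-response curve.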

[2] = tested on: TNFα release in d-U937 cells; experiment: LPS-induced TNFα release in d-U937 cells; format: cell-based, human; settings: Homo sapiens, dU937, relative to 10 μg/mL BIRB796, read-out: LPS/TNFα REC50 d-U937
How it was run: (§1)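 PMA-differentiated (100 ng/ml, 48–72 hr) U937 macrophage-type cells pre-incubated 2 hr with compound, then stimulated 4 hr with 0.1 μg/mL E. coli O111:B4 LPS; supernatant TNFα and IL-8 measured by sandwich ELISA. TNFα inhibition expressed relative to 10 μg/mL BIRB796, giving REC50; IL-8 inhibition versus vehicle, giving IC50.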

[3] = molecular target: T1, p38 MAPKα isoform (MAPK14) (Homo sapiens, UniProt Q16539); experiment: Enzyme inhibition assay (FRET, Z-LYTE), p38 MAPKα via MAPKAP-K2 activation; format: biochemical; settings: read-out: Enzyme Inhibition IC50 p38α
T1 construct: purchased Invitrogen
How it was run: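 Recombinant p38 MAPKα was preincubated with compound for 2 h at RT. Its activity was measured indirectly through activation/phosphorylation of downstream MAPKAP-K2, with a Z-LYTE FRET peptide read-out (coumarin/fluorescein ratio) after a 1 h development step. IC50 came from concentration-response curves of percent inhibition versus an uninhibited control.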

[4] = tested on: IL-8 release in d-U937 cells; experiment: LPS-induced IL-8 release in d-U937 cells; format: cell-based, human; settings: Homo sapiens, dU937
How it was run: as §1

[5] = tested on: Differentiated U937 cells; experiment: Cell viability MTT assay; format: cell-based, human; settings: negative = apparent increase in viability; for MTT Assay (Viability) 4 h d-U937, percentage loss of cell viability: 4 hr in 5% FCS; for MTT Assay (Viability) 24 h d-U937, percentage loss of cell viability: 24 h in 10% FCS
How it was run: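 Differentiated U937 cells pre-incubated with compound either 4 hr in 5% FCS or 24 h in 10% FCS, then 1 hr MTT. Formazan dissolved in DMSO, absorbance at 550 nm. Percentage viability loss relative to 0.5% DMSO vehicle; apparent increases appear as negative percentages.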

[6] = molecular target: T2, p38 MAPKγ (MAPK12) (Homo sapiens, UniProt P53778); experiment: Enzyme inhibition assay (FRET, Z-LYTE), p38 MAPKγ; format: biochemical; settings: read-out: Enzyme Inhibition IC50 p38γ
T2 construct: purchased Invitrogen
T2 sequence (P53778 1-367): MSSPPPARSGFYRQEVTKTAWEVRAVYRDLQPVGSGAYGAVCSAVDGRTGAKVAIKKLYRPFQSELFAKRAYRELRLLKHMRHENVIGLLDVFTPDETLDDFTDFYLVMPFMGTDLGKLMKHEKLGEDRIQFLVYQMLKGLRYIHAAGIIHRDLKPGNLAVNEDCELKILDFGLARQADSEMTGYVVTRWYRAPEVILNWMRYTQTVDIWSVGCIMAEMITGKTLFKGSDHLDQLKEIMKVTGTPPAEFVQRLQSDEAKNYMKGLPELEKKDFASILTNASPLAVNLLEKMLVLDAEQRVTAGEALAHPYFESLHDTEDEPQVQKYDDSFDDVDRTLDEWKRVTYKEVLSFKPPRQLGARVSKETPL
How it was run: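 Recombinant phosphorylated p38 MAPKγ preincubated 2 h at RT with compound in HEPES buffer, then 2 μM FRET peptide and 100 μM ATP added for 1 h; protease development 1 h. Coumarin/fluorescein emission ratio gave phosphorylation; IC50 from concentration-response versus uninhibited control.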

[7] = tested on: TNFα release in THP-1 cells; experiment: LPS-induced TNFα release in THP-1 cells; format: cell-based, human; settings: Homo sapiens
How it was run: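 Human monocytic THP-1 cells stimulated with 3 μg/mL E. coli LPS for 4 hr; supernatant TNFα measured by sandwich ELISA. Inhibition at each concentration versus vehicle control, IC50 from concentration-response curve.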

T1 sequence (Q16539 whole entry, canonical isoform): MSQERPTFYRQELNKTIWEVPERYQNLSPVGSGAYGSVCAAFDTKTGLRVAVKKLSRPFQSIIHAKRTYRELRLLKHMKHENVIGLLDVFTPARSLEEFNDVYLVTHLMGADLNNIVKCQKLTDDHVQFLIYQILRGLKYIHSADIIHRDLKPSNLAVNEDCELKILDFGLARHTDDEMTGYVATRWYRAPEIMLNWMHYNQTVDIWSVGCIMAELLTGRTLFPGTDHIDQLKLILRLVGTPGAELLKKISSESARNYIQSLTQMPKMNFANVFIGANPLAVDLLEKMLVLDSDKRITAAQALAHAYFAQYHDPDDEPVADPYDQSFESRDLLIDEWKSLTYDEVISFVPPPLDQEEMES

Row | Structure (SMILES) | pEC50 [2] | pIC50 [3] | pIC50 [4] | pIC50 [6] | pIC50 [7] | pIC50 [1] | MTT Assay (Viability) 4 h d-U937, percentage loss of cell viability [5] | MTT Assay (Viability) 24 h d-U937, percentage loss of cell viability [5]
1 | COCC(=O)Nc1nccc(Oc2ccc(NC(=O)Nc3cc(C(C)(C)C)nn3-c3ccc(C)cc3)c(Cl)c2Cl)n1 [Example 90, N-(4-(4-(3-(3-tert-butyl-1-p-tolyl-1H-pyrazol-5-yl)ureido)-2,3-dichlorophenoxy)pyrimidin-2-yl)-2-methoxyacetamide] | 8.89 | 7.34 | 8.64 | 6.90 | 8.89 | 8.17 | −26.8% | −0.5%
2 | COCC(=O)Nc1nccc(Oc2ccc(NC(=O)Nc3cc(C(C)(C)C)nn3-c3ccc(CO)cc3)c(Cl)c2Cl)n1 [Example 94, N-(4-(4-(3-(3-tert-butyl-1-(4-hydroxymethylphenyl)-1H-pyrazol-5-yl)ureido)-2,3-dichlorophenoxy)pyrimidin-2-yl)-2-methoxyacetamide] | 9.22 | 7.77 | 7.67 | 6.91 | 9.00 | 8.05 | 2.3% | 76.6%
3 | CNC(=O)Nc1nccc(Oc2ccc(NC(=O)Nc3cc(C(C)(C)C)nn3-c3ccc(C)cc3)c(Cl)c2Cl)n1 [Example 96, 1-(3-tert-butyl-1-p-tolyl-1H-pyrazol-5-yl)-3-(2,3-dichloro-4-(2-(3-methylureido)pyrimidin-4-yloxy)phenyl)urea] | 9.70 | 7.67 | 8.72 | 6.82 | 8.59 | 7.52 | −16.1% | −13.4%
4 | CNC(=O)Nc1nccc(Oc2ccc(NC(=O)Nc3cc(C(C)(C)C)nn3-c3ccc(OC)cc3)c(Cl)c2Cl)n1 [Example 98, 1-(3-tert-butyl-1-(4-methoxyphenyl)-1H-pyrazol-5-yl)-3-(2,3-dichloro-4-(2-(3-methylureido)pyrimidin-4-yloxy)phenyl) urea] | 8.72 | 7.49 | 8.57 | 6.99 | 8.85 | 8.39 | −25.9% | −29.3%
5 | CNC(=O)Nc1cc(COc2ccc(NC(=O)Nc3cc(C(C)(C)C)nn3-c3ccc(C)cc3)c(Cl)c2Cl)ccn1 [Example 102, 1-(4-((4-(3-(3-tert-butyl-1-p-tolyl-1H-pyrazol-5-yl)ureido)-2,3-dichlorophenoxy)methyl)pyridin-2-yl)-3-methylurea] | 8.33 | 7.36 | 8.32 | 6.85 | 8.46 | 7.60 | −14.1% | 8.8%

Second part, led by results:

Row | pEC50 [2] | pIC50 [3] | pIC50 [4] | pIC50 [6] | pIC50 [7] | Structure (SMILES) | pIC50 [1] | MTT Assay (Viability) 4 h d-U937, percentage loss of cell viability [5] | MTT Assay (Viability) 24 h d-U937, percentage loss of cell viability [5]
6 | 9.05 | 7.59 | 8.00 | 6.78 | 7.85 | COCC(=O)Nc1cc(Oc2ccc(NC(=O)Nc3cc(C(C)(C)C)nn3-c3cccc(CO)c3)c(Cl)c2Cl)ncn1 [Example 92, N-(6-(4-(3-(3-tert-butyl-1-(3-hydroxymethylphenyl)-1H-pyrazol-5-yl)ureido)-2,3-dichlorophenoxy)pyrimidin-4-yl)-2-methoxyacetamide] | 8.72 | −14.4% | 81.0%
7 | 8.89 | 8.05 | 7.72 | 6.80 | 9.10 | COCC(=O)Nc1cc(Oc2ccc(NC(=O)Nc3cc(C(C)(C)C)nn3-c3ccc(CO)cc3)c(Cl)c2Cl)ncn1 [Example 93, N-(6-(4-(3-(3-tert-butyl-1-(4-hydroxymethylphenyl)-1H-pyrazol-5-yl)ureido)-2,3-dichlorophenoxy)pyrimidin-4-yl)-2-methoxyacetamide] | 9.30 | −1.4% | 91.5%
8 | 9.70 | 7.52 | 9.70 | 6.76 | 8.80 | CNC(=O)Nc1cc(Oc2ccc(NC(=O)Nc3cc(C(C)(C)C)nn3-c3ccc(C)cc3)c(Cl)c2Cl)ncn1 [Example 95, 1-(3-tert-butyl-1-p-tolyl-1H-pyrazol-5-yl)-3-(2,3-dichloro-4-(6-(3-methylureido)pyrimidin-4-yloxy)phenyl)urea] | 8.96 | −38.0% | 22.5%
9 | 10.00 | 7.48 | 10.00 | 6.69 | 8.85 | CNC(=O)Nc1cc(Oc2ccc(NC(=O)Nc3cc(C(C)(C)C)nn3-c3ccc(OC)cc3)c(Cl)c2Cl)ncn1 [Example 97, 1-(3-tert-butyl-1-(4-methoxyphenyl)-1H-pyrazol-5-yl)-3-(2,3-dichloro-4-(6-(3-methylureido)pyrimidin-4-yloxy)phenyl) urea] | 8.92 | −27.2% | 32.9%
10 | 9.00 | 7.62 | 8.16 | 6.84 | 8.96 | CNC(=O)Nc1cc(Oc2ccc(NC(=O)Nc3cc(C(C)(C)C)nn3-c3ccc(CO)cc3)c(Cl)c2Cl)ncn1 [Example 99, 1-(3-tert-butyl-1-(4-hydroxymethylphenyl)-1H-pyrazol-5-yl)-3-(2,3-dichloro-4-(6-(3-methylureido)pyrimidin-4-yloxy)phenyl)urea] | 8.49 | 3.7% | 92.4%
11 | 9.52 | 8.28 | 7.89 | 7.23 | 9.15 | COc1ccc(-n2nc(C(C)(C)C)cc2NC(=O)Nc2ccc(Oc3cc(NC(=O)NCCN(C)C)ncn3)c(Cl)c2Cl)cc1 [Example 100] | 8.70 | −43.0% | 17.2%
12 | 8.96 | 8.25 | 8.51 | 7.24 | 7.98 | CN(C)CCNC(=O)Nc1cc(Oc2ccc(NC(=O)Nc3cc(C(C)(C)C)nn3-c3ccc(CO)cc3)c(Cl)c2Cl)ncn1 [Example 101, 1-(3-tert-butyl-1-(4-hydroxymethylphenyl)-1H-pyrazol-5-yl)-3-(2,3-dichloro-4-(6-(3-(2-(dimethylamino)ethyl)ureido)pyrimidin-4-yloxy)phenyl)urea] | 8.28 | 2.8% | 73.9%

From patent publication US10000471B2, “Pyrazole P38 map kinase inhibitors” (Respivert Limited, priority 2010, dated 2018)
